Measurements as given in patent publication US20210292272A1, “Salts of Zuclomiphene” (Apotex Inc., priority 2020, published 2021).

Tests used:
[1] = PXRD study of crystalline form stability of uncapped samples in a 40° C./75% RH stability chamber; format: physicochemical; conditions: at least 4 weeks
Procedure: PXRD diffractograms were recorded on a Bruker-AXS D8 Discover powder X-ray diffractometer (Bruker-AXS, Karlsruhe, Germany). The X-rays were generated using an Incoatec Micro-focus X-ray source (IpSTube: Cu tube with λ=1.54060 Å) with a voltage of 50 kV and current of 1.00 mA, using a micro mask 0.3 mm plug-in pinhole microslit and a short UBC 45 mm long collimator with a 0.3 mm diameter. For each sample, one frame was collected using a still scan with a Pilatus 3R-100K-A area detector at the distance of 154.72 mm from the sample. Raw data were evaluated using the program DIFFRAC.EVA (Bruker-AXS, Karlsruhe, Germany).

[2] = Intrinsic dissolution rate (IDR) measurement, Wood apparatus; format: physicochemical; conditions: 900 mL distilled water, 37° C., 50 rpm
Procedure: Intrinsic dissolution rate (IDR) measurements were performed using a Wood apparatus (Pharma Test PT-DT8 instrument) having a bath temperature of 37° C. Samples were prepared by compressing 200-400 mg samples at 1.5 metric tons for 1 minute. A dissolution medium consisting of 900 mL distilled water, and rotation speed of 50 rpm, was used for each experiment.

[3] = system: Men with Prostate Cancer on Androgen Deprivation Therapy; conditions: 50 mg of zuclomiphene citrate, interim Phase 2 results; cited from earlier work

| IDR (intrinsic dissolution rate) [2] [mg min^−1 cm^−2] | Substance | change in the crystalline form (PXRD) [1] | moderate to severe hot flashes, change from baseline [3] |
| --- | --- | --- | --- |
| 3.75 | zuclomiphene L-malate [zuclomiphene L-malate Form APO-I] | no change in the crystalline form occurred | – |
| 2.37 | zuclomiphene L-tartrate [zuclomiphene L-tartrate Form APO-I] | no change in the crystalline form occurred | – |
| – | zuclomiphene citrate | – | statistically significant decrease |
| – | zuclomiphene fumarate [zuclomiphene fumarate Form APO-I] | no change in the crystalline form occurred | – |
| – | zuclomiphene phosphate [zuclomiphene phosphate Form APO-I] | no change in the crystalline form occurred | – |
| – | zuclomiphene succinate [zuclomiphene succinate Form APO-I] | no change in the crystalline form occurred | – |
| – | zuclomiphene sulphate [zuclomiphene sulphate Form APO-I] | no change in the crystalline form occurred | – |
| – | zuclomiphene tosylate [zuclomiphene tosylate Form APO-I] | no change in the crystalline form occurred | – |
